The values that follow come from PMC4232510, “Identification of Functionally Important Residues of the Rat P2X4 Receptor by Alanine Scanning Mutagenesis of the Dorsal Fin and Left Flipper Domains” (PLoS ONE, 2014).

One experiment deals with T1, rP2X4R E285A mutant (Rattus norvegicus, UniProt P51577, E285A).
T1 construct: expressed in transfected cells; host or cells: HEK293T
T1 sequence (P51577 1-388 E285A): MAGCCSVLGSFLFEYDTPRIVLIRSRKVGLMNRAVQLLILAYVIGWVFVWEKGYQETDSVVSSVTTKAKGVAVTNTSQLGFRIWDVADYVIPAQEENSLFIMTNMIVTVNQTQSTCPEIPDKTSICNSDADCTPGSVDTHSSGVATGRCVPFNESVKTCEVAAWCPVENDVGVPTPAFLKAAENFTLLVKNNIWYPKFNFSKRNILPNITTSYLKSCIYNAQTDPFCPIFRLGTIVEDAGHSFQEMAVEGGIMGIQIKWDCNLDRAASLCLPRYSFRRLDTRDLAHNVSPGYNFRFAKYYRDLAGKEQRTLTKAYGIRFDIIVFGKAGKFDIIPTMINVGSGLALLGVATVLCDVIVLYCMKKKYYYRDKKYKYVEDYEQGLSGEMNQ
Put plainly: whole-cell patch clamp, HEK293T cells expressing mutant. It counts as cell-based. A general note: The patch-clamp technique gives a direct electrical read-out from membranes.

A further experiment addresses T2, rP2X4R V288A mutant (Rattus norvegicus, UniProt P51577, V288A).
T2 construct: expressed in transfected cells; host or cells: HEK293T
T2 sequence (P51577 1-388 V288A): T1 sequence (P51577 1-388 E285A) with A285E, V288A
The description is as above. It counts as cell-based.

Where [1] appears, read: 100 µM ATP 60 s, biexponential fit.
The mark [2] stands for this setting: contribution of τdes2, 100 µM ATP 60 s.
[3] abbreviates: decay after removal of 1 or 3 µM ATP, 3 µM IVM.
Where [4] appears, read: naïve receptors, 2–5 s application.
Where [5] appears, read: 3 µM IVM 4-6 min vs IVM-untreated.

Substitutions are numbered along the chain they refer to.

Broadly, the EC50 is the concentration needed to bring the measured effect to its halfway point. A high value points to a less potent agent. Take `Nc1ncnc2c1ncn2[C@@H]1O[C@H](COP(=O)(O)OP(=O)(O)OP(=O)(O)O)[C@@H](O)[C@H]1O` [ATP]: the τdes1 was 0.9 ± 0.2 s on rP2X4R E285A mutant (setting [1]) and 1.7 ± 0.3 s at rP2X4R V288A mutant (setting [1]). For the same compound, the τdes2 on rP2X4R E285A mutant (setting [1]) is on record as 8.5 ± 3.6 s; at rP2X4R V288A mutant (setting [1]), 9.3 ± 1.7 s. Also, the Imax on rP2X4R E285A mutant (100–1000 µM ATP) is 2.0 ± 0.5 nA; on rP2X4R V288A mutant (100–1000 µM ATP), 1.3 ± 0.2 nA. In addition, the “Imax+IVM” value is given as 2.6 ± 0.6 nA at rP2X4R E285A mutant (ATP after 3 µM IVM 4-6 min) and 3.0 ± 0.7 nA on rP2X4R V288A mutant (ATP after 3 µM IVM 4-6 min). For the same compound, the entries for the “A2 /(A1+A2)” value on rP2X4R E285A mutant (setting [2]) and on rP2X4R V288A mutant (setting [2]) were 65 ± 2% and 72 ± 8%, respectively. The results for the “τoff +IVM” value on rP2X4R E285A mutant (setting [3]) and on rP2X4R V288A mutant (setting [3]) were 24 ± 4.3 s and 19 ± 2.0 s, respectively. Moreover, the results for the concentration for a half-maximal effect (EC50) on rP2X4R E285A mutant (setting [4]) and at rP2X4R V288A mutant (setting [4]) were 7.1 ± 3 µM and 5.7 ± 3.1 µM, respectively. The τdes is 6.0 ± 2.6 s at rP2X4R E285A mutant (weighted, 100 µM ATP 60 s) and 7.5 ± 1.6 s at rP2X4R V288A mutant (weighted, 100 µM ATP 60 s).

On to `CC[C@H](C)[C@H]1O[C@]2(CC[C@@H]1C)C[C@@H]1C[C@@H](C/C=C(\C)[C@@H](O[C@H]3C[C@H](OC)[C@@H](O[C@H]4C[C@H](OC)[C@@H](O)[C@H](C)O4)[C@H](C)O3)[C@@H](C)/C=C/C=C3\CO[C@@H]4[C@H](O)C(C)=C[C@@H](C(=O)O1)[C@]34O)O2` [IVM, ivermectin], for which the results for the “Fold incr. Imax” value on rP2X4R E285A mutant (setting [5]) and at rP2X4R V288A mutant (setting [5]) were 1.3 ± 0.4 fold and 2.3 ± 0.3 fold, respectively.
